Measured values: patent US5989846A, “Assays to identify inducers of plant defense resistance” (Rutgers, The State University of New Jersey, priority 1995, dated 1999)

Legend:
[1] = test system: resistance or PR gene expression; parameters: key: ++: indicates a high level of biological activity; +: indicates a lower level of biological activity; ±: indicates low, but detectable biological activity in some assays; -: indicates no biological activity; conditions: Table 3; values reported in literature; cited from earlier work
[2] = test system: catalases from non-plant sources; assay: Inhibition of non-plant catalases by salicylic acid; type: biochemical; conditions: catalases from fungi and animals
Description: Genes or cDNA copies for several of these catalases have been cloned (e.g. Scandalios, J. G. et al., Proc. Natl. Acad. Sci. USA, 77 (1980) 5360-5364; Bell, G. I. et al., Nucleic Acids Res., 14, (1986), 5561-5562; Hartig, A. et al., Eur. J. Biochem, 160, (1986) 487-490). A gene encoding one of these catalases can be introduced and expressed in a plant in the sense orientation using appropriate regulatory sequences (e.g. CaMV 35S promoter and nopaline synthase cleavage and polyadenylation signal) and vectors (e.g. PCGN 1540 or pCIB3064) as described in Example 25.

[3] = target: salicylic acid binding protein; assay: Scatchard analysis of [14C] salicylic acid binding; conditions: tobacco SABP; [14C] salicylic acid 2 to 70 μM
Protocol: Kd is defined herein as the concentration of salicylic acid needed to occupy 50% of the binding sites on the salicylic acid binding protein when the binding process reaches its equilibrium. Thus, a smaller value of Kd indicates a stronger interaction between salicylic acid and salicylic acid binding protein and vice versa. Kd is determined by measuring the amounts of salicylic acid bound to salicylic acid binding-protein at various concentrations of salicylic acid and then plotting the ratio of bound to free, salicylic acid concentrations versus bound salicylic acid concentrations to give a linear plot with a slope of -1/Kd. […]
A key element during the characterization and the purification process is a simple, inexpensive, sensitive and reliable method for determining the salicylic acid binding activity. […] (specifically radioactivity 55 Ci/mol; purchased from New England Nuclear), 150 μl of proteins binding sample was loaded onto the tube column, which was then rapidly centrifuged for 2 minutes at full speed and the solution of proteins and bound [^14 C-salicylic acid] that was excluded from the gel was collected into another tube that had been placed under the tube column during the centrifugation. […]

ascorbate peroxidase = assay: Ascorbate peroxidase activity in tobacco leaf extracts; type: biochemical, Nicotiana tabacum cv. Xanthi nc
Procedure, shortened: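 Soluble extracts from leaves of 6–8-week Nicotiana tabacum cv. Xanthi nc, desalted into 50 mM potassium phosphate pH 7 with 100 μM ascorbate, were assayed (30–50 μg protein) with or without 100 or 1000 μM SA or INA. Ascorbate oxidation followed as A290 decrease; means of three replicates.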

H2 O2 = assay: Abundance of H2O2 in treated tobacco leaves; type: in vivo; conditions: FIG. 11
Description: The abundance of H2 O2 increased in SA- or 3AT-treated tobacco leaves by 50-60% over the control levels observed in water-treated leaves. […] Thus, elevated levels of H2 O2, and in turn, enhanced oxidative stress in vivo, were consistent with inhibition of catalase activity by SA observed in vitro.

plant processes = test system: plant processes; parameters: key: +: induces or enhances; -: reduces or inhibits; conditions: addition of salicylic acid to plants; cited from earlier work

O=C(O)c1ccccc1O [salicylic acid, 2-hydroxybenzoic acid]
Biological activity [1]: ++
Sensitivity of non-plant catalases to inhibition [2]: insensitive to inhibition
Kd [3]: 14 ± 5 µM
% Inhibition of ascorbate peroxidase (ascorbate peroxidase; 200 μM compound, corrected for quenching of auto oxidation): 83 ± 9%
IC50 (ascorbate peroxidase; 750 μM ascorbate, 25 to 500 μM compound, FIG. 17, read-out: Concentration necessary for 50% inhibition (I50) of ascorbate peroxidase): ~80 µM
Activity (ascorbate peroxidase; APX, 100 μM compound): 2.0 ± 0.2 μmols of oxidized substrate mi
Inhibition (ascorbate peroxidase; APX, 100 μM compound): 59%
Activity (ascorbate peroxidase; APX, 1,000 μM compound): 0.24 ± 0.1 μmols of oxidized substrate mi
Inhibition (ascorbate peroxidase; APX, 1,000 μM compound): 95%
Increase in abundance of H2O2 over water-treated leaves (H2 O2): 50-60%
Effect on Adventitious root initiation (plant processes): +
Effect on Alternative pathway (plant processes): +
Effect on Disease resistance (plant processes): +
Effect on Ethylene biosynthesis (plant processes): -
Effect on Flowering (plant processes): +
Effect on Fruit yield (plant processes): +
Effect on Gene regulation (plant processes): +
Effect on Glycolysis (plant processes): +
Effect on Growth inhibition (plant processes): +
Effect on Krebs cycle (plant processes): +
Effect on Leaf abscission (plant processes): -
Effect on Photonastic leaflet movement (plant processes): +
Effect on Potassium ion absorption (plant processes): -
Effect on Scotonastic leaflet movement (plant processes): -
Effect on Seed germination (plant processes): - and +
Effect on Somatic embryogenesis (plant processes): -
Effect on Stomatal closure (plant processes): -
Effect on Thermogenesis (plant processes): +
Effect on Transpiration (plant processes): -
Effect on Wound response (plant processes): -
